From ChEMBL document CHEMBL1777692, “Elucidation of common pharmacophores from analysis of targeted metabolites transported by the multispecific drug transporter-Organic anion transporter1 (Oat1)” (Bioorg Med Chem, 2011) come the findings set out here.

In assay [1] the target is T1, Solute carrier family 22 member 6 (Rattus norvegicus, UniProt O35956).
T1 sequence (O35956 whole entry): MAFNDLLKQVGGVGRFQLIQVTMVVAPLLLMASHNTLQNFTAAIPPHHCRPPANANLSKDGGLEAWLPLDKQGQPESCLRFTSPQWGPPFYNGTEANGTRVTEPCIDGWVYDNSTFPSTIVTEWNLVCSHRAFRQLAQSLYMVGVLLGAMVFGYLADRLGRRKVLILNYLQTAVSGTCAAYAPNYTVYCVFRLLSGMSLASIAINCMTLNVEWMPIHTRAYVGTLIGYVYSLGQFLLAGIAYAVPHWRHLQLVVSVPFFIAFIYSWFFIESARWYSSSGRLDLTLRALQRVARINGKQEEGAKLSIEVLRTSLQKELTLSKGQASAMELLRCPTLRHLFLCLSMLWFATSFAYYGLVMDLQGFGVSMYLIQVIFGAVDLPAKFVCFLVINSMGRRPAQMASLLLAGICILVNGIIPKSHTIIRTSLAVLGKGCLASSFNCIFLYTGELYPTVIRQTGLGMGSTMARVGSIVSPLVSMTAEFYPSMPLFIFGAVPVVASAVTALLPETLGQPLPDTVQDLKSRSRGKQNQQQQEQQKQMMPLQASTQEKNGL
Briefly: Inhibition of rat Oat1 expressed in pig […] cells. In kind it is cell-based.

Assay [2] addresses T1, Solute carrier family 22 member 6. Briefly: Inhibition of rat Oat1 expressed in Xenopus oocytes. Format: cell-based, Oocyte.

Regarding `CC[C@H](C)C(=O)O[C@H]1C[C@H](O)C=C2C=C[C@H](C)[C@H](CC[C@@H](O)C[C@@H](O)CC(=O)O)[C@H]21` [PRAVASTATIN], affinity in assay [1] was put at a Ki of 52 µM.

With `C[C@]12CC[C@@H]3c4ccc(O)cc4CC[C@H]3[C@@H]1CC[C@@H]2O[C@@H]1O[C@H](C(=O)O)[C@@H](O)[C@H](O)[C@H]1O` [ESTRADIOL 17B GLUCURONIDE], the Ki in assay [1] is greater than 300 µM. In assay [1], `CCc1cccc2c3c([nH]c12)C(CC)(CC(=O)O)OCC3` (centres undefined) [ETODOLAC] showed a Ki greater than 100 µM. In assay [2], `CCSC[C@H](NC(C)=O)C(=O)O` came in with a Ki of 1100 µM.

Broadly, the Ki is a measure of affinity in units of concentration, obtained from inhibition or displacement. Read a high Ki as weaker binding.
